Experimental data published in the METLIN SMRT retention time set (Domingo-Almenara et al. 2019).

Assay: gradient 5% acetonitrile 3 min, to 50% in 2 min, to 85% in 15 min, held 3 min, 100 µL/min
Settings: column: Zorbax Extend-C18 2.1 x 50 mm; eluents: water / acetonitrile, 0.1% formic acid
Procedure, shortened: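 Pure standards were analyzed in mixtures of ~100 molecules using HPLC coupled to a quadrupole time-of-flight mass spectrometer, in both positive and negative ionization mode. Separation used a Zorbax Extend-C18 column (2.1 × 50 mm, 1.8 μm) at 100 μL/min, with water and acetonitrile each containing 0.1% formic acid. Dead and dwell volumes were 40 μL and 900 μL, and data were collected over 3 months. Retention time was read from computationally picked adduct peaks, each inspected manually.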

RP-LC retention time | Compound
741 s | Cc1ccccc1NC(=O)C1CCN(C(=O)C2Sc3ccccc3NC2=O)CC1 (stereo unspecified)
821 s | CC(C)CNc1nc(-c2ccc([N+](=O)[O-])cc2)nc2ccccc12
596 s | CNC(=O)C1CN(C(=O)Cc2c[nH]c3ccccc23)CC12CCCC2 (stereo unspecified)
573 s | O=C(NCC1CCN(Cc2ccccc2)CC1)C(=O)Nc1ccc(F)cc1F
605 s | Cc1c(C)n(CC(O)CNC(C)c2ccccc2)c2ccccc12 (stereo unspecified)
881 s | Cc1ccc(Nc2c(-c3ccccc3)nc3ccc(Br)cn23)cc1
764 s | COc1cccc(CC(=O)N2C[C@@H]3C[C@H]2C[C@@H]3NS(=O)(=O)c2ccccc2)c1
868 s | O=C(Nc1cccc(OCc2nnc(-c3ccccc3)o2)c1)c1ccoc1
595 s | COCc1cc(=O)n(CC(=O)Nc2ccc(C)cc2)c(N)n1
605 s | COc1ccc(C(=O)N2C[C@@H]3C[C@H](NC(=O)c4cccnc4)[C@H]2C3)c(OC)c1
1060 s | CCOc1ccc(S(=O)(=O)N2CCCC(C(=O)NC3CCCCCC3)C2)cc1 (stereo unspecified)
772 s | CCOc1ccccc1NC(=O)N1C[C@@H](F)C[C@H]1C(=O)N1CCCCC1
618 s | c1ccc(C2CN3CCSC3=N2)cc1 (stereo unspecified)
880 s | O=C1CCc2cc(OCCCCc3nnnn3C3CCCCC3)ccc2N1
1200 s | Cc1cccc(-c2noc(Cc3nc(-c4ccc5c(c4)OCO5)cs3)n2)c1
1120 s | COc1ccc(-c2nc(-c3cccc(-c4ccnn4C)c3)no2)cc1
642 s | CCCN1CCN(c2cc(C(=O)O)c3cc(NS(=O)(=O)c4ccc(CC)cc4)ccc3n2)CC1
896 s | Cn1cc(SCC(=O)Nc2cccc(F)c2)c2ccccc21
770 s | COc1cc(OC)cc(C(=O)N2CCC3(C2)C(=O)N(C)c2ccccc23)c1 (stereo unspecified)
743 s | COC(=O)c1cccc(NC(=O)CSc2nccc(N3CCN(c4ccc(OC)cc4)CC3)n2)c1
808 s | O=C(Nc1ccc(OCC(=O)N2CCN(c3ccc(Cl)cc3)CC2)nc1)C1CC1
952 s | CN(CCc1noc(-c2ccc(Cl)cc2)n1)C(=O)Nc1ccccc1F

RP-LC retention time | Compound
661 s | Cc1cccc(C)c1NC(=O)N1CCC(OC2CCN(Cc3ccccc3)CC2)CC1
752 s | COc1ccc(-c2noc(C3CCCN3C(=O)c3ccc(NC(C)=O)cc3)n2)cc1 (stereo unspecified)
667 s | O=C(NCC1CCCO1)C1CCN(c2cnn(Cc3ccccc3)c(=O)c2)CC1 (stereo unspecified)
685 s | CC(C)S(=O)(=O)Nc1ccc2c(c1)CN(C(=O)c1ccco1)CC2
681 s | COCC(=O)N1CCCc2ccc(NC(=O)C3CC(=O)N(c4ccc(F)cc4)C3)cc21 (stereo unspecified)
974 s | CSc1ccc(-c2nc3cnccn3c2Nc2ccccc2C)cc1
970 s | Cn1c(=O)sc2cc(S(=O)(=O)N3CCC(C(=O)Nc4cccc(C(F)(F)F)c4)CC3)ccc21
866 s | CN(Cc1ccccc1)C(=O)c1cc2n(n1)CC(C)(C(=O)NC1CCCCCC1)N(C)C2=O (stereo unspecified)
585 s | Cc1ccc(-c2cn3cc(C(=O)NC(C)c4cccnc4)ccc3n2)cc1C (stereo unspecified)
744 s | COc1cc(CNC(=O)c2ccc(Cc3c(C)noc3C)o2)cc(OC)c1OC
1270 s | CSc1ccc(-c2noc(Cn3ncn4nc(-c5ccc(C)cc5C)cc4c3=O)n2)cc1
593 s | Cc1ccc(-n2c(=O)n(CC(=O)NCCCN(C)C)c3cccnc32)cc1
825 s | Cc1ccc(NC(=O)Cn2nc3c(Oc4ccccc4C)nccn3c2=O)cc1F
604 s | Cc1noc(C)c1S(=O)(=O)N1CCC2(CCC(CN(C)Cc3ccncc3)O2)CC1 (stereo unspecified)
656 s | O=C(NCCn1c(CCc2ccccc2)nc2ccccc21)NCc1ccco1
528 s | O=C(NC1CC1)[C@@H]1C[C@H](Oc2cccnc2)CN1C(=O)c1ccc2ncccc2c1
610 s | O=C(NCC1(CO)CC1)C(=O)Nc1cccc(N2CCCCC2=O)c1
840 s | CCc1noc(NC(C)=O)c1-c1ccc(C)c(S(=O)(=O)Nc2ccc(OC)c(OC)c2)c1
854 s | CC(=O)Nc1ccc(S(=O)(=O)N2CC=C(c3cn(C(C)C)c4ncccc34)CC2)cc1
801 s | COCCCNC(=O)C1CCN(c2nc3ccc(-c4cccs4)nc3s2)CC1
574 s | O=C(NC1CC1)c1ccc(N2CCC(NCc3ccc(Cl)cc3)C2)nc1 (stereo unspecified)
668 s | O=S(=O)(c1cccc(C(F)(F)F)c1)N1CCN(c2cnn3cnnc3c2)CC1

RP-LC retention time | Compound
748 s | COc1ccccc1NC(=O)Cn1cnc2onc(C)c2c1=O
745 s | COc1ccc(CNC(=O)C2CCCN2S(=O)(=O)c2cc3c(cc2Cl)NC(=O)CO3)cc1 (stereo unspecified)
988 s | O=C(CSc1cc(NCc2ccc(Cl)cc2)ncn1)Nc1ccc(F)cc1F
598 s | O=C(C1CCC1)N1CCC(Cc2nc(C3CC3)n[nH]2)CC1
987 s | CSc1ccccc1C(=O)N(Cc1ccsc1)CC(F)(F)F
644 s | CCCCNC(=O)c1cc(NC(=O)C2CCC2)cc2nc(C)ccc12
623 s | CCNC(=O)C1CCN(S(=O)(=O)c2ccc3c(c2)NC(=O)CO3)CC1
1050 s | CC(C)(C)n1nc2c(c1-n1cccc1)CN(C(=O)C1COc3ccccc3O1)C2 (stereo unspecified)
1040 s | CCCOc1ccc(Br)cc1-c1cc(-c2ccc(Cl)cc2)[nH]c1-c1ccncc1
824 s | O=C(Nc1ccc(F)c(C(F)(F)F)c1)C1COCC(=O)N1Cc1ccccc1 (stereo unspecified)
973 s | CCCOc1ccc(C2C(=O)N(C3CCCCC3)CC(=O)N2Cc2ccco2)cc1OC (stereo unspecified)
859 s | CCOc1ccc(NC(=O)N2CCCC(C)(C(=O)NCc3ccccc3)C2)cc1 (stereo unspecified)
774 s | COc1ccc2[nH]cc(CCN3CC(C(=O)Nc4cc(C)ccc4C)CC3=O)c2c1 (stereo unspecified)
982 s | Cc1ccc(-c2ncc(NC(=O)c3cccs3)cn2)cc1
837 s | CCCSc1ncnc2[nH]ncc12
808 s | Cc1ccc(NC(=O)C2CCCN2S(=O)(=O)c2cc3c(cc2C)NC(=O)CO3)cc1F (stereo unspecified)
948 s | CCc1nn2c(CNS(=O)(=O)Cc3ccccc3F)c(-c3ccccc3)nc2s1
1040 s | CCNS(=O)(=O)c1cccnc1Nc1cccc(Br)c1
884 s | COc1ccc(N2CC(c3nc(-c4ccc(OC)c(OC)c4)no3)CC2=O)cc1Cl (stereo unspecified)
891 s | CCn1c(C(=O)Nc2cccc(C)n2)cc2c(=O)oc3ccccc3c21
580 s | Cc1ccc(CN2CCC(C3CCN(S(C)(=O)=O)CC3)C2)nc1 (stereo unspecified)

Compound | RP-LC retention time
CCc1nc2cc(N3CCCC(C(=O)N4CCC5(CC4)OCCO5)C3)cnc2nc1CC (stereo unspecified) | 769 s
